Laboratory results reported in patent US11045455B2, “Azetidine derivative, preparation method therefor, and use thereof” (SICHUAN KELUN-BIOTECH BIOPHARMACEUTICAL CO., LTD., priority 2016, dated 2021).
Structures can show the parent of a compound that is named as a salt. Where two headings read alike, the source gives them in different places.

What was measured:
[1] = Pharmacokinetic study in rats, intravenous (IV) administration; type: in vivo; conditions: male, SD, rat, plasma, IV administration at 1 mg/kg, 0-24 h
Method: Experimental Example 3: Pharmacokinetic Studies
To study the pharmacokinetic characteristics of test compounds, the test compounds were administrated by intravenous (IV) and gavage (PO) routes to male SD rats. The dosage for IV administration was 1 mg/kg, and that for PO administration was 0.5-5 mg/kg. The vehicle is 10% DMSO: 10% solutol: 80% physiological saline, or 5% DMSO: 5% solutol: 90% physiological saline, or 10% DMSO: 60% PEG: 30% physiological saline. Blood was collected at various time points after administration. Plasma samples were analyzed by LC-MS/MS after protein precipitation process with acetonitrile.

[2] = target: JAK3 (Homo sapiens (Human), UniProt P52333); experiment: JAK3 enzymatic inhibition assay (ADP-Glo luminescence); type: biochemical
Excerpt: (§1) Experimental Example 1: JAK1, JAK2, JAK3 and TYK2 Enzymatic Inhibition Assay

[3] = target: hERG potassium channel (Homo sapiens (Human), UniProt Q12809); experiment: Predictor hERG Fluorescence Polarization Assay; type: binding; conditions: tested at 3, 10 and 30 μM
Method: Experimental Example 2: Safety Test
The effect of test compounds on hERG potassium channel were determined using Predictor™ hERG Fluorescence Polarization Assay at concentrations of 3, 10, and 30 μM.

[4] = target: JAK1 (Homo sapiens (Human), UniProt P23458); experiment: JAK1 enzymatic inhibition assay (ADP-Glo luminescence); type: biochemical
Method: (§3) Test Materials • JAK1, JAK2, JAK3 and TYK2 enzymes were purchased from Life Technologies; and substrate GFP-STAT1 was purchased from Life Technologies.
(§4) Test compounds, enzymes, the substrate and ATP were diluted to the desired concentrations with the assay buffer (40 mM Tris-HCl, pH 7.4, 20 mM MgCl2, 0.1% BSA). The former three were added into a multiple well plate, and incubated at room temperature after being mixed homogeneously. ATP was added to initiate the kinase reaction, and incubation at room temperature was performed. ADP-Glo was added, and incubation at room temperature was performed. The kinase detector reagent was then added, and incubation at room temperature was performed. The luminescence intensity of each test group was detected, and the half maximal inhibitory concentration (IC50) value was calculated.

[5] = target: JAK2 (Homo sapiens (Human), UniProt O60674); experiment: JAK2 enzymatic inhibition assay (ADP-Glo luminescence); type: biochemical
Method: as §3, §4

[6] = target: CYP3A4 (Homo sapiens (Human), UniProt P08684); experiment: CYP450 enzyme test, P450-Glo screening system, CYP3A4; type: in vitro ADME
Excerpt: (§2) CYP450 is the most important enzymatic system in drug metabolism. The enzymes involved in the metabolism interact with a drug, and mainly include CYP1A2, CYP2D6 and CYP3A4. In the CYP450 enzyme test, P450-Glo™ CYP1A2 screening system was employed to determine the inhibitory activity of compounds on CYP1A2 and CYP3A4. The Vivid® CYP2D6 Cyan screening kit was employed to determine the inhibitory activity of test compounds on CYP2D6.

[7] = target: CYP1A2 (Homo sapiens (Human), UniProt P05177); experiment: CYP450 enzyme test, P450-Glo screening system, CYP1A2; type: in vitro ADME; conditions: read-out: IC50 (μM) CYP1A2
Excerpt: as §2

[8] = target: CYP2D6 (Homo sapiens (Human), UniProt P10635); experiment: CYP450 enzyme test, Vivid CYP2D6 Cyan screening kit; type: in vitro ADME
Excerpt: as §2

[9] = target: TYK2 (Homo sapiens (Human), UniProt P29597); experiment: TYK2 enzymatic inhibition assay (LanthaScreen TR-FRET); type: biochemical
Method: as §1
As for the TYK2 enzyme, Tb-anti-pSTAT1 was added, and incubation at room temperature was performed.

JAK3, sequence (P52333 whole entry): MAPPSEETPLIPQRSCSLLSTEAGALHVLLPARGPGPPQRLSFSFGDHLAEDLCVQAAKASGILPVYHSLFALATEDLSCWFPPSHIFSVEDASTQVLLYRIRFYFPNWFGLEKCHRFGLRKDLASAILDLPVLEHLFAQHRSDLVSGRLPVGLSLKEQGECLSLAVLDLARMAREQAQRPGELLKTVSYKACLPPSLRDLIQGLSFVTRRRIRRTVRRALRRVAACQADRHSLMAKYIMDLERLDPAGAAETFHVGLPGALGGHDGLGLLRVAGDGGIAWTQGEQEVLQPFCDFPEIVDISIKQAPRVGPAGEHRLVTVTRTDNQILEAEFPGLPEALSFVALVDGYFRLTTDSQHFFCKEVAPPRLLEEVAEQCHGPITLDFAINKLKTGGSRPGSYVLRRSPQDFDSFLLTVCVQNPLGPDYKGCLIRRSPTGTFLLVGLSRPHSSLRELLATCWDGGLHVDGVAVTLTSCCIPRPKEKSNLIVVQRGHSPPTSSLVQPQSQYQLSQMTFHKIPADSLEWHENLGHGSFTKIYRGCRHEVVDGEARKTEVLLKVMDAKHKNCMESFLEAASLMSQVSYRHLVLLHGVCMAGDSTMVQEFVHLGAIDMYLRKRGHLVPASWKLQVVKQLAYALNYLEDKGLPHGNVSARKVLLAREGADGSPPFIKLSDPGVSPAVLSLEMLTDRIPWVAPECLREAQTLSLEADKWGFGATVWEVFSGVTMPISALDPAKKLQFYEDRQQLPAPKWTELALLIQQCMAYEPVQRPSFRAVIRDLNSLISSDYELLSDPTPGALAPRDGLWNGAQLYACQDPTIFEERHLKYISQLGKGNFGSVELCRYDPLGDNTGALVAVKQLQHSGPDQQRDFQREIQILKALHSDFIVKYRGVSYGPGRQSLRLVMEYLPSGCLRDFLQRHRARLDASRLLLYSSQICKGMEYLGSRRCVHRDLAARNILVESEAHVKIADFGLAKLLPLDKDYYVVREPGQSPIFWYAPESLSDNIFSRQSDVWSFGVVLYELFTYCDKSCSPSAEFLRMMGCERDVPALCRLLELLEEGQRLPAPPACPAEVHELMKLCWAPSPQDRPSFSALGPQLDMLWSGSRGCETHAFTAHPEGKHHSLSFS
CYP3A4, sequence (P08684 whole entry): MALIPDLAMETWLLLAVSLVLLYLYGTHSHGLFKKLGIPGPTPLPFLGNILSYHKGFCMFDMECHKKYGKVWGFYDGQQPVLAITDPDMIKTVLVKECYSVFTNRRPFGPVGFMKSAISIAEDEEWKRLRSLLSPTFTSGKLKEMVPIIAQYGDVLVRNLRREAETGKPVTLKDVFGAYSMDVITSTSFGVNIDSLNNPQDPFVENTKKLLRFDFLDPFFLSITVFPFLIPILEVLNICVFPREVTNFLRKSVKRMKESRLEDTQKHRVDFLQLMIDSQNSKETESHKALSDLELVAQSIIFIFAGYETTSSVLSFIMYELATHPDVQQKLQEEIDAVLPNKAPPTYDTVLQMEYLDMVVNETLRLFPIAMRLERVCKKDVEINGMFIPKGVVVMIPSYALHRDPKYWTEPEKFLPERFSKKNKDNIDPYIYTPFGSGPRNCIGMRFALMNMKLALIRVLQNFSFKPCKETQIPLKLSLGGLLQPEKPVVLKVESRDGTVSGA
TYK2, sequence (P29597 whole entry): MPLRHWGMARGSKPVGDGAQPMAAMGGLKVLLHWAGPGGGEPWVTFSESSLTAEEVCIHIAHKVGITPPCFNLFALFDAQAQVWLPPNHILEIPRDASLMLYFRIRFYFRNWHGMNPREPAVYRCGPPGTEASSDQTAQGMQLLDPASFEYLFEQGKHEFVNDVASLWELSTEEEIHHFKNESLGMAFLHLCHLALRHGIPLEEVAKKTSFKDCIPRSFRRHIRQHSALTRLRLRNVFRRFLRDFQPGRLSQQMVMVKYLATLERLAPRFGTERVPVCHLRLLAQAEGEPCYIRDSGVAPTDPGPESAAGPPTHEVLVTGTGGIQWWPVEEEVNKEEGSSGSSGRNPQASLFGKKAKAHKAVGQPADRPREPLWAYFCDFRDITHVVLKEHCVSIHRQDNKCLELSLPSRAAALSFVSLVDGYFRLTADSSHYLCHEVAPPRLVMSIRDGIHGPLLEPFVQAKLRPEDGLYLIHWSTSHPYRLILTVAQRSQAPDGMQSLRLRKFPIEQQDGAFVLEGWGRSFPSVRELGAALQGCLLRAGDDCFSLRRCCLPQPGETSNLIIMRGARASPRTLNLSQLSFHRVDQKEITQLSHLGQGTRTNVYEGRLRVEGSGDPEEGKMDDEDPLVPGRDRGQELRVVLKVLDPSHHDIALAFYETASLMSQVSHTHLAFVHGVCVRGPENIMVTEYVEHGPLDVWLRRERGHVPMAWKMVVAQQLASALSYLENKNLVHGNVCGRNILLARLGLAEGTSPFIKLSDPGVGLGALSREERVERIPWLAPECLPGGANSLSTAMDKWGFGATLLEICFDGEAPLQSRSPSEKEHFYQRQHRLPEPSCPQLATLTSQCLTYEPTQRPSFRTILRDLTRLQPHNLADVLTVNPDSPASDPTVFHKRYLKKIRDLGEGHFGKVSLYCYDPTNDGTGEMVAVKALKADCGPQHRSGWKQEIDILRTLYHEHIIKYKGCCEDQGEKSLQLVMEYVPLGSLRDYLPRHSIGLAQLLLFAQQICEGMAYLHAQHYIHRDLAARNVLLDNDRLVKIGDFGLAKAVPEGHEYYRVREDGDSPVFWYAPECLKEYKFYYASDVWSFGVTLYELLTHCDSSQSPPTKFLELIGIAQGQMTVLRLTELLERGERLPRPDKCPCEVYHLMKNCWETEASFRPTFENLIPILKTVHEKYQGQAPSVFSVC
JAK2, sequence (O60674 whole entry): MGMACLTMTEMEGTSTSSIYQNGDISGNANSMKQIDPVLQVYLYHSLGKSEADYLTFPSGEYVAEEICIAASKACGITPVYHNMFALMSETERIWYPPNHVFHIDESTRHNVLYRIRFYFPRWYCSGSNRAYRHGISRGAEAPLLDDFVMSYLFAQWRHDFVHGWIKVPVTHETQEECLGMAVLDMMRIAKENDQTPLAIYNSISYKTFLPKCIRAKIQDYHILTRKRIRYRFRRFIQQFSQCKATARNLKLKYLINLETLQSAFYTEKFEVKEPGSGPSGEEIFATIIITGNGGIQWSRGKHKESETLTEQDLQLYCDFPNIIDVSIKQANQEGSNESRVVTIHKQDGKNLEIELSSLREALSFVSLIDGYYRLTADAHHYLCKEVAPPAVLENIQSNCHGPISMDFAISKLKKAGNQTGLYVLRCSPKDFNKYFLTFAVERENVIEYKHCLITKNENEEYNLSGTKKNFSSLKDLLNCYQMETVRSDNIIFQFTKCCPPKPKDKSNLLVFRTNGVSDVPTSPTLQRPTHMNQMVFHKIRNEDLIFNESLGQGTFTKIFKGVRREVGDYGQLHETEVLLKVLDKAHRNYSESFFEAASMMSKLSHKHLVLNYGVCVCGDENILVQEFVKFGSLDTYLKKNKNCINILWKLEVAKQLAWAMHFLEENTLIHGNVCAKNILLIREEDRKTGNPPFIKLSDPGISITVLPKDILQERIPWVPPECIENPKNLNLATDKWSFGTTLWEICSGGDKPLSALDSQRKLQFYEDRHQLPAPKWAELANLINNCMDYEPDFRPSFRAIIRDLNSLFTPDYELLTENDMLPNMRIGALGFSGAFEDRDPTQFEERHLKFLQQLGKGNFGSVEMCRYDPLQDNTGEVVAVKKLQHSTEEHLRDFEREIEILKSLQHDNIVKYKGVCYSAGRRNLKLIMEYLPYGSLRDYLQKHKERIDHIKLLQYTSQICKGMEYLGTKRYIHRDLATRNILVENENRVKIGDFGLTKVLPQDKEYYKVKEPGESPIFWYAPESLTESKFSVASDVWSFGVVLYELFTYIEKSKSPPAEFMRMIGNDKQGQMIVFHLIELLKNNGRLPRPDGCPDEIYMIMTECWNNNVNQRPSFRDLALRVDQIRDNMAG
hERG potassium channel, sequence (Q12809 whole entry): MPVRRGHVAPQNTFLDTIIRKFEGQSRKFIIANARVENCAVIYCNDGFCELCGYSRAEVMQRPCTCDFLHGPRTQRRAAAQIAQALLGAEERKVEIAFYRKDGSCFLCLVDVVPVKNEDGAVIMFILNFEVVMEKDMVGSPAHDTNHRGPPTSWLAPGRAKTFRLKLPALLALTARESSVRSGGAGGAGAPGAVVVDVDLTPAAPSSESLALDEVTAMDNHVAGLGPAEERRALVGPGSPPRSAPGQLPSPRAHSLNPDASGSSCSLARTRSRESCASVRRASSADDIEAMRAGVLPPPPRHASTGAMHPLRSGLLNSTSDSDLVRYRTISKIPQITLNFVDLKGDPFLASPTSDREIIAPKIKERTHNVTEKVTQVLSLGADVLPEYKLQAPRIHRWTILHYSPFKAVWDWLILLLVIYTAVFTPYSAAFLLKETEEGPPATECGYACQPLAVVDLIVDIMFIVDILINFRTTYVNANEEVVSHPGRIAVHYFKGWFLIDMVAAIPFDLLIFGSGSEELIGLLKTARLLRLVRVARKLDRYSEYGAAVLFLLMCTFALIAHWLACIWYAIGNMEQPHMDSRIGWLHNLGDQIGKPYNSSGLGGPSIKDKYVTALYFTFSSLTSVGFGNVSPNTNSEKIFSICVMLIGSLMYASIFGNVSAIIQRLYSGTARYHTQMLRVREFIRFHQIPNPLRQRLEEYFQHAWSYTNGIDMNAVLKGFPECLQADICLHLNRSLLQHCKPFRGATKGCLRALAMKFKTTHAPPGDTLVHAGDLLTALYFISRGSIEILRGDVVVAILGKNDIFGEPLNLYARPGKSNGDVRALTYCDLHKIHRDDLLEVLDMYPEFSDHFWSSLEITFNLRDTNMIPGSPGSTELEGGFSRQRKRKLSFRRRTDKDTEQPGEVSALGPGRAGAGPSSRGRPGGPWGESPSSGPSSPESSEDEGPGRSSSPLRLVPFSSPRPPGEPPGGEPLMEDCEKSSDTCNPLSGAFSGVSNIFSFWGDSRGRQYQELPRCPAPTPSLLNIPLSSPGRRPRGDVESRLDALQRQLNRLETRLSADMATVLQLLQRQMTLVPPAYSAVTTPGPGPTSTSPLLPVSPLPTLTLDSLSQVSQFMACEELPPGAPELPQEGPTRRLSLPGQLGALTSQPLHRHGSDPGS

Structure (SMILES) | IC50 [4] [nM] | IC50 [5] [nM] | IC50 [3] [nM] | further results
CCCS(=O)(=O)N1CC(CC#N)(n2cc(-c3c(C#N)cnc4[nH]ccc34)cn2)C1 [Compound 40, 4-(1-(3-(cyanomethyl)-1-(propylsulfonyl)azetidin-3-yl)-1H-pyrazol-4-yl)-1H-pyrrolo[2,3-b]pyridine-5-carbonitrile] | 0.97 | 2.24 |  | 
CCS(=O)(=O)N1CC(CC#N)(n2cc(-c3c(Cl)cnc4[nH]ccc34)cn2)C1 [Compound 50-HCl, 2-(3-(4-(5-chloro-1H-pyrrolo[2,3-b]pyridin-4-yl)-1H-pyrazol-1-yl)-1-(ethylsulfonyl)azetidin-3-yl)acetonitrile Hydrochloride Salt] |  |  |  | IC50 ([5]; Hydrochloride Salt): 0.62 nM
CCS(=O)(=O)N1CC(C(C)C#N)(n2cc(-c3c(C#N)cnc4[nH]ccc34)cn2)C1 (centres unmarked) [Compound 45, 4-(1-(3-(1-cyanoethyl)-1-(ethylsulfonyl)azetidin-3-yl)-1H-pyrazol-4-yl)-1H-pyrrolo[2,3-b]pyridine-5-carbonitrile] | 1.66 | 3.22 |  | 
CCS(=O)(=O)N1CC(CC#N)(n2cc(C)c(-c3ncnc4[nH]ccc34)c2)C1 [Compound 56, 2-(1-(ethylsulfonyl)-3-(3-methyl-4-(7H-pyrrolo[2,3-d]pyrimidin-4-yl)-1H-pyrrol-1-yl)azetidin-3-yl)acetonitrile] | 3.52 | 1.76 |  | 
CN(C)S(=O)(=O)N1CC(CC#N)(n2cc(-c3c(C#N)cnc4[nH]ccc34)cn2)C1 [Compound 34, 3-(4-(5-cyano-1H-pyrrolo[2,3-b]pyridin-4-yl)-1H-pyrazol-1-yl)-3-(cyanomethyl)-N,N-dimethylazetidine-1-sulfonamide] | 0.8 | 1.66 |  | 
CCS(=O)(=O)N1CC(CC#N)(n2cc(-c3c(F)cnc4[nH]ccc34)cn2)C1 [Compound 52-HCl, 2-(1-(ethylsulfonyl)-3-(4-(5-fluoro-1H-pyrrolo[2,3-b]pyridin-4-yl)-1H-pyrazol-1-yl)azetidin-3-yl)acetonitrile Hydrochloride Salt] |  |  |  | IC50 ([5]; Hydrochloride Salt): 0.35 nM
CCS(=O)(=O)N1CC(CC#N)(n2cc(-c3c(Cl)cnc4[nH]ccc34)cn2)C1 [Compound 50, 2-(3-(4-(5-chloro-1H-pyrrolo[2,3-b]pyridin-4-yl)-1H-pyrazol-1-yl)-1-(ethylsulfonyl)azetidin-3-yl)acetonitrile] |  | 0.67 | > 30000 | IC50 [6]: > 10 µM; IC50 [7]: > 10 µM; IC50 [8]: > 10 µM
N#CCC1(n2cc(-c3c(C#N)cnc4[nH]ccc34)cn2)CN(S(=O)(=O)CCC(F)(F)F)C1 [Compound 44, 4-(1-(3-(cyanomethyl)-1-((3,3,3-trifluoropropyl)sulfonyl)azetidin-3-yl)-1H-pyrazol-4-yl)-1H-pyrrolo[2,3-b]pyridine-5-carbonitrile] | 1.95 | 3.93 |  | 
CCS(=O)(=O)N1CC(CC#N)(n2ccc(-c3c(C#N)cnc4[nH]ccc34)c2)C1 [Compound 17, 4-(1-(3-(cyanomethyl)-1-(ethylsulfonyl)azetidin-3-yl)-1H-pyrrol-3-yl)-1H-pyrrolo[2,3-b]pyridine-5-carbonitrile] | 1.13 | 0.93 | > 30000 | 
CCS(=O)(=O)N1CC([C@@H](C)C#N)(n2cc(-c3c(C#N)cnc4[nH]ccc34)cn2)C1 [Compound 45-1, (R)-4-(1-(3-(1-cyanoethyl)-1-(ethylsulfonyl)azetidin-3-yl)-1H-pyrazol-4-yl)-1H-pyrrolo[2,3-b]pyridine-5-carbonitrile] | 1.65 | 1.17 | > 30000 | IC50 [2]: 10 to 30 nM; IC50 [9]: ~30 nM
CCS(=O)(=O)N1CC([C@H](C)C#N)(n2cc(-c3ncnc4[nH]ccc34)cn2)C1 [Compound 12-2, (S)-2-(3-(4-(7H-pyrrolo[2,3-d]pyrimidin-4-yl)-1H-pyrazol-1-yl)-1-(ethylsulfonyl)azetidin-3-yl)propanenitrile] |  | 1.81 | > 30000 | IC50 [2]: 10 to 30 nM; IC50 [9]: ~30 nM
CCS(=O)(=O)N1CC([C@H](C)C#N)(n2cc(-c3c(C#N)cnc4[nH]ccc34)cn2)C1 [Compound 45-2, (S)-4-(1-(3-(1-cyanoethyl)-1-(ethylsulfonyl)azetidin-3-yl)-1H-pyrazol-4-yl)-1H-pyrrolo[2,3-b]pyridine-5-carbonitrile] | 1.85 | 1.11 | > 30000 | IC50 [2]: 10 to 30 nM; IC50 [9]: ~30 nM
CCS(=O)(=O)N1CC(CC#N)(n2cc(-c3ncnc4[nH]ccc34)c(C)n2)C1 [Compound 49, 2-(1-(ethylsulfonyl)-3-(3-methyl-4-(7H-pyrrolo[2,3-d]pyrimidin-4-yl)-1H-pyrazol-1-yl)azetidin-3-yl)acetonitrile] |  | 1.21 | > 30000 | IC50 [6]: > 10 µM; IC50 [7]: > 10 µM; IC50 [8]: > 10 µM

Now from value to molecule, other results behind:

IC50 [4] [nM] | IC50 [5] [nM] | Structure (SMILES) | IC50 [3] [nM] | further results
0.72 | 1.23 | CC1(S(=O)(=O)N2CC(CC#N)(n3cc(-c4ccnc5[nH]ccc45)cn3)C2)CC1 [Compound 31, 2-(3-(4-(1H-pyrrolo[2,3-b]pyridin-4-yl)-1H-pyrazol-1-yl)-1-((1-methylcyclopropyl)sulfonyl)azetidin-3-yl)acetonitrile] | > 30000 | AUC(0-t) [1]: 540 ng·h/mL; IC50 [2]: 23.6 nM
5.66 | 1.4 | CCS(=O)(=O)N1CC(CC#N)(n2cc(-c3ccnc4[nH]ccc34)c(Cl)n2)C1 [Compound 48, 2-(3-(3-chloro-4-(1H-pyrrolo[2,3-b]pyridin-4-yl)-1H-pyrazol-1-yl)-1-(ethylsulfonyl)azetidin-3-yl)acetonitrile] | > 30000 | IC50 [6]: > 10 µM; IC50 [7]: > 10 µM; IC50 [8]: > 10 µM
2.89 | 1.44 | CCS(=O)(=O)N1CC(CC#N)(n2cc(-c3ccnc4[nH]ccc34)c(C)n2)C1 [Compound 13, 2-(1-(ethylsulfonyl)-3-(3-methyl-4-(1H-pyrrolo[2,3-b]pyridin-4-yl)-1H-pyrazol-1-yl)azetidin-3-yl)acetonitrile] | > 30000 | IC50 [2]: > 30 nM; IC50 [9]: ~30 nM
2.41 | 0.89 | CCCS(=O)(=O)N1CC(CC#N)(n2cc(-c3ccnc4[nH]ccc34)cn2)C1 [Compound 23, 2-(3-(4-(1H-pyrrolo[2,3-b]pyridin-4-yl)-1H-pyrazol-1-yl)-1-(propylsulfonyl)azetidin-3-yl)acetonitrile] | > 30000 | 
1.3 | 0.5 | CN(C)S(=O)(=O)N1CC(CC#N)(n2cc(-c3ccnc4[nH]ccc34)cn2)C1 [Compound 14, 3-(4-(1H-pyrrolo[2,3-b]pyridin-4-yl)-1H-pyrazol-1-yl)-3-(cyanomethyl)-N,N-dimethylazetidine-1-sulfonamide] | > 30000 | 
0.17 | 0.42 | CS(=O)(=O)N1CC(CC#N)(n2cc(-c3c(C#N)cnc4[nH]ccc34)cn2)C1 [Compound 2, 4-(1-(3-(cyanomethyl)-1-(methylsulfonyl)azetidin-3-yl)-1H-pyrazol-4-yl)-1H-pyrrolo[2,3-b]pyridine-5-carbonitrile] | > 30000 | 
1.46 | 1.4 | N#CCC1(n2cc(-c3ccnc4[nH]ccc34)cn2)CN(S(=O)(=O)N2CCCC2)C1 [Compound 35, 2-(3-(4-(1H-pyrrolo[2,3-b]pyridin-4-yl)-1H-pyrazol-1-yl)-1-(pyrrolidin-1-ylsulfonyl)azetidin-3-yl)acetonitrile] | > 30000 | IC50 [2]: > 30 nM; IC50 [9]: > 30 nM
0.78 | 1.98 | CC1(S(=O)(=O)N2CC(CC#N)(n3cc(-c4c(C#N)cnc5[nH]ccc45)cn3)C2)CC1 [Compound 1, 4-(1-(3-(cyanomethyl)-1-((1-methylcyclopropyl)sulfonyl)azetidin-3-yl)-1H-pyrazol-4-yl)-1H-pyrrolo[2,3-b]pyridine-5-carbonitrile] | > 30000 | 
 | 0.4 | CCS(=O)(=O)N1CC(CC#N)(n2cc(-c3c(F)cnc4[nH]ccc34)cn2)C1 [Compound 52, 2-(1-(ethylsulfonyl)-3-(4-(5-fluoro-1H-pyrrolo[2,3-b]pyridin-4-yl)-1H-pyrazol-1-yl)azetidin-3-yl)acetonitrile] | > 30000 | IC50 [6]: > 10 µM; IC50 [7]: > 10 µM; IC50 [8]: > 10 µM
0.46 | 0.37 | N#CCC1(n2cc(-c3ccnc4[nH]ccc34)cn2)CN(S(=O)(=O)C2CC2)C1 [Compound 26, 2-(3-(4-(1H-pyrrolo[2,3-b]pyridin-4-yl)-1H-pyrazol-1-yl)-1-(cyclopropylsulfonyl)azetidin-3-yl)acetonitrile] | > 30000 | 
